Our source for the Ki values is patent publication US10544150B2, “NK-3 receptor selective antagonist compounds, pharmaceutical composition and methods for use in NK-3 receptors mediated disorders” (Ogeda SA, priority 2010, dated 2020).

By Ki is commonly meant a measure of affinity in units of concentration, obtained from inhibition or displacement.

In this test the target is human NK-3 receptor (Homo sapiens (Human), UniProt P29371). Kind of test: 3H-SB222200 binding competition assay with human NK-3 receptor. To be noted: 3H-SB222200 displacement, CHO cell membranes expressing human NK3 receptor; read-out: Ki range. Summed up:
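Membranes from CHO cells expressing human NK3 receptor incubated with 5 nM 3H-SB222200 and test compound in HEPES 25 mM/NaCl 0.1M/CaCl2 1 mM/MgCl2 5 mM/BSA 0.5%/saponin 10 μg/ml, pH 7.4. Bound radioligand counted after filtration; Ki calculated, reported in bands (+++ <500 nM to # >5 μM).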

human NK-3 receptor, sequence (P29371 whole entry): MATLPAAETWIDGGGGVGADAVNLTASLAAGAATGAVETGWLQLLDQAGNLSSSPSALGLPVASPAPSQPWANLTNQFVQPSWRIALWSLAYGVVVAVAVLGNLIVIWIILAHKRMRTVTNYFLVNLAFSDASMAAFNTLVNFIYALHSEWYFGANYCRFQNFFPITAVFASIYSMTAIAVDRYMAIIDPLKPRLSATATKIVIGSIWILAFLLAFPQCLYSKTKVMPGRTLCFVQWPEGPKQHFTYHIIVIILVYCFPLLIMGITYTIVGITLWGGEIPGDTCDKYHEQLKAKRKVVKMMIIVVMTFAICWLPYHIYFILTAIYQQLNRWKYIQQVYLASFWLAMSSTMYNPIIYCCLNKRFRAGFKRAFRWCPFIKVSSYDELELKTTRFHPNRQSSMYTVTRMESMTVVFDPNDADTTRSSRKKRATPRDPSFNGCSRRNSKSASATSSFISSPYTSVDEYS

For the compound `O=C(c1ccc(F)cc1)N1CCn2c(nnc2-c2ccccn2)C1` [Compound 1, (4-fluorophenyl)(3-(pyridin-2-yl)-5,6-dihydro-[1,2,4]triazolo[4,3-a]pyrazin-7(8H)-yl)methanone], the Ki lay in the range of 1 to 5 µM.
Then `COCCC1CN(c2nc(-c3nnc4n3CCN(C(=O)c3ccc(-c5cccs5)cc3)C4)cs2)CCO1` (stereo not shown) [Compound 257, (3-(2-(2-(2-methoxyethyl)morpholino)thiazol-4-yl)-5,6-dihydro-[1,2,4]triazolo[4,3-a]pyrazin-7(8H)-yl)(4-(thiophen-2-yl)phenyl)methanone], with below 0.5 µM; and `O=C(c1ccc(F)cc1)N1CCn2c(-c3csc(-c4ccccc4)n3)nnc2C1c1ccc(F)cc1` (stereo not shown) [Compound 41, (4-fluorophenyl)(8-(4-fluorophenyl)-3-(2-phenylthiazol-4-yl)-5,6-dihydro-[1,2,4]triazolo[4,3-a]pyrazin-7(8H)-yl)methanone], with below 0.5 µM.
In the case of `O=C(c1ccc(-c2ccc(F)cc2)cc1)N1CCn2c(nnc2-c2ccccn2)C1` [Compound 16, (4′-fluoro-[1,1′-biphenyl]-4-yl)(3-(pyridin-2-yl)-5,6-dihydro-[1,2,4]triazolo[4,3-a]pyrazin-7(8H)-yl)methanone], the Ki fell in the range of 1 to 5 µM.
Consider `Cn1nc(-c2nnc3n2CCN(C(=O)c2ccc(F)cc2)C3)cc1-c1ccccc1` [Compound 238, (4-fluorophenyl)(3-(1-methyl-5-phenyl-1H-pyrazol-3-yl)-5,6-dihydro-[1,2,4]triazolo[4,3-a]pyrazin-7(8H)-yl)methanone], for which the Ki is below 0.5 µM.
Regarding `O=C(c1ccc(-c2ccccc2)cc1)N1CCn2c(nnc2-c2nc(-c3ccc(F)cc3)no2)C1` [Compound 204, [1,1′-biphenyl]-4-yl(3-(3-(4-fluorophenyl)-1,2,4-oxadiazol-5-yl)-5,6-dihydro-[1,2,4]triazolo[4,3-a]pyrazin-7(8H)-yl)methanone], the Ki is below 0.5 µM.
Under `O=C(c1ccc(-c2ccc(F)cc2)cc1)N1CCn2c(nnc2-c2csc(CS(=O)(=O)c3ccc(Cl)cc3)n2)C1` [Compound 200, (3-(2-(((4-chlorophenyl)sulfonyl)methyl)thiazol-4-yl)-5,6-dihydro-[1,2,4]triazolo[4,3-a]pyrazin-7(8H)-yl)(4′-fluoro-[1,1′-biphenyl]-4-yl)methanone] stands 0.5 to 1 µM; under `CC1Cn2c(nnc2-c2csc(-c3ccc(F)cc3)n2)CN1C(=O)c1ccc(-c2cccs2)cc1` (stereo not shown) [Compound 107, (3-(2-(4-fluorophenyl)thiazol-4-yl)-6-methyl-5,6-dihydro-[1,2,4]triazolo[4,3-a]pyrazin-7(8H)-yl)(4-(thiophen-2-yl)phenyl)methanone], 0.5 to 1 µM.
Under `C[C@H]1c2nnc(-c3ccccn3)n2CCN1C(=O)c1ccc(F)cc1` [Compound 159, (S)-(4-fluorophenyl)(8-methyl-3-(pyridin-2-yl)-5,6-dihydro-[1,2,4]triazolo[4,3-a]pyrazin-7(8H)-yl)methanone] stands above 5 µM; under `CC1c2nnc(-c3csc(N4CCOCC4)n3)n2CCN1C(=O)c1ccc(-c2ccc(F)cc2)cc1` (stereo not shown) [Compound 53, (4′-fluoro-[1,1′-biphenyl]-4-yl)(8-methyl-3-(2-morpholinothiazol-4-yl)-5,6-dihydro-[1,2,4]triazolo[4,3-a]pyrazin-7(8H)-yl)methanone], below 0.5 µM; under `C[C@@H]1c2nnc(-c3ccc4ccccc4n3)n2CCN1C(=O)c1ccc(F)cc1` [Compound 115, (R)-(4-fluorophenyl)(8-methyl-3-(quinolin-2-yl)-5,6-dihydro-[1,2,4]triazolo[4,3-a]pyrazin-7(8H)-yl)methanone], below 0.5 µM.
Then `C[C@@H]1c2nnc(-c3csc(N4CCOCC4)n3)n2CCN1C(=O)c1ccc(-c2ccc(F)cc2)cc1` [Compound 134, (R)-(4′-fluoro-[1,1′-biphenyl]-4-yl)(8-methyl-3-(2-morpholinothiazol-4-yl)-5,6-dihydro-[1,2,4]triazolo[4,3-a]pyrazin-7(8H)-yl)methanone], with below 0.5 µM.
On to `CC1CN(c2nc(-c3nnc4n3CCN(C(=O)c3ccc(-c5cccs5)cc3)C4)cs2)C(C)CO1` (stereo not shown) [Compound 261, (3-(2-(2,5-dimethylmorpholino)thiazol-4-yl)-5,6-dihydro-[1,2,4]triazolo[4,3-a]pyrazin-7(8H)-yl)(4-(thiophen-2-yl)phenyl)methanone], for which the Ki is below 0.5 µM.
As for `CC1(C)CCN(c2nc(-c3nnc4n3CCN(C(=O)c3ccc(F)cc3)C4)cs2)CC1` [Compound 276, (3-(2-(4,4-dimethylpiperidin-1-yl)thiazol-4-yl)-5,6-dihydro-[1,2,4]triazolo[4,3-a]pyrazin-7(8H)-yl)(4-fluorophenyl)methanone], the Ki was above 5 µM.
Then `O=C(c1ccccc1)N1CCn2c(nnc2-c2ccccn2)C1` [Compound 231, phenyl(3-(pyridin-2-yl)-5,6-dihydro-[1,2,4]triazolo[4,3-a]pyrazin-7(8H)-yl)methanone], with 1 to 5 µM.
`O=C(c1ccc(-c2ccc(F)cc2)cc1)N1CCn2c(nnc2-c2csc(Cn3cnc(Cl)c3Cl)n2)C1` [Compound 187, (3-(2-((4,5-dichloro-1H-imidazol-1-yl)methyl)thiazol-4-yl)-5,6-dihydro-[1,2,4]triazolo[4,3-a]pyrazin-7(8H)-yl)(4′-fluoro-[1,1′-biphenyl]-4-yl)methanone]: the Ki lay in the range of 1 to 5 µM.
For `O=C(c1ccc(F)cc1)N1CCn2c(nnc2-c2csc(-c3ccc(F)cc3)n2)C1` [Compound 32, (4-fluorophenyl)(3-(2-(4-fluorophenyl)thiazol-4-yl)-5,6-dihydro-[1,2,4]triazolo[4,3-a]pyrazin-7(8H)-yl)methanone], the Ki was below 0.5 µM.
As for `O=C(c1ccc(F)cc1)N1CCn2c(nnc2-c2cc3ccccc3cn2)C1` [Compound 15, (4-fluorophenyl)(3-(isoquinolin-3-yl)-5,6-dihydro-[1,2,4]triazolo[4,3-a]pyrazin-7(8H)-yl)methanone], the Ki lay within 1 to 5 µM.
For the compound `CC1(C)CCN(c2nc(-c3nnc4n3CCN(C(=O)c3ccc(-c5cccs5)cc3)C4)cs2)CC1` [Compound 274, (3-(2-(4,4-dimethylpiperidin-1-yl)thiazol-4-yl)-5,6-dihydro-[1,2,4]triazolo[4,3-a]pyrazin-7(8H)-yl)(4-(thiophen-2-yl)phenyl)methanone], the Ki is 0.5 to 1 µM.
For the compound `CN1CCN(c2nc(-c3nnc4n3CCN(C(=O)c3ccc(-c5cccs5)cc3)C4)cs2)CC1` [Compound 250, (3-(2-(4-methylpiperazin-1-yl)thiazol-4-yl)-5,6-dihydro-[1,2,4]triazolo[4,3-a]pyrazin-7(8H)-yl)(4-(thiophen-2-yl)phenyl)methanone], the Ki is 0.5 to 1 µM.
Regarding `O=C(c1ccc(F)cc1)N1CCn2c(nnc2-c2nc(-c3ccccc3)no2)C1` [Compound 172, (4-fluorophenyl)(3-(3-phenyl-1,2,4-oxadiazol-5-yl)-5,6-dihydro-[1,2,4]triazolo[4,3-a]pyrazin-7(8H)-yl)methanone], the Ki was below 0.5 µM.
Regarding `CC1c2nnc(-c3ccc4ccccc4n3)n2CCN1C(=O)c1ccc(-c2cccs2)cc1` (stereo not shown) [Compound 65, (8-methyl-3-(quinolin-2-yl)-5,6-dihydro-[1,2,4]triazolo[4,3-a]pyrazin-7(8H)-yl)(4-(thiophen-2-yl)phenyl)methanone], the Ki is below 0.5 µM.
